The target in experiment [1] is T1, porcine pancreatic lipase (PL) (Sus scrofa, UniProt P00591).
T1 construct: purchased Jiangsu Jingmei Bio technology (Yancheng, China)
T1 sequence (P00591 1-450): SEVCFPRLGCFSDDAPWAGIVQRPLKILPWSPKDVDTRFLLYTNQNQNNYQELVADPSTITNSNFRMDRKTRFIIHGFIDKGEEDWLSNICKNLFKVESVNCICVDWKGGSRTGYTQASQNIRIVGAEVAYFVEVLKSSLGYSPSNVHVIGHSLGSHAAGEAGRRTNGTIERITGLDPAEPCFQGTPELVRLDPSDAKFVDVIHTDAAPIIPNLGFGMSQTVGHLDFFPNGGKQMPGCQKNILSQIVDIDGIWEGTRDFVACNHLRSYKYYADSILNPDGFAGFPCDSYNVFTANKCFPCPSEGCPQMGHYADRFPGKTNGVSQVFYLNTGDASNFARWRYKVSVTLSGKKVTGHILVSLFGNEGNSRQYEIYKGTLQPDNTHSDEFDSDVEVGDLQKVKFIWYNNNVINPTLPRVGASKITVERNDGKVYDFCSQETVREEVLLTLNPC
Put plainly: In vitro PL inhibition assay (p-nitrophenylbutyrate substrate). Format: biochemical. The conditions noted are these: triplicate; for pIC50: porcine PL 1 mg/mL in 100 mM Tris HCl, pre-incubation 37 °C 30 min, 5 mM p-nitrophenylbutyrate, absorbance 450 nm, from fitted inhibition curve; for PL inhibition rate: range over concentrations of 0.2–1.0 mg/mL, 37 °C, 30 min pre-incubation. How it is done:
(§1) This experiment, based on the method of Glisan et al. and with slight modifications to the experimental method, determined the effects of peptides RK7 and KQ7 on porcine pancreatic lipase (PL). Firstly, dissolve p-nitrophenylbutyrate (5 mM) in a sodium acetate solution (5 mM, containing 1% Triton X-100). Dissolve porcine pancreatic lipase (PL) (1 mg/mL) in 100 mM Tris HCl buffer. Incubate with different concentrations of porcine pancreatic lipase (PL) and peptides in 96-well plates (37 °C) for 30 min. Then, mix with 5 mM p-nitrophenylbutyrate solution to initiate the enzyme reaction. The labeled pig pancreatic lipase antibody binds to form an antibody–antigen enzyme-labeled antibody complex. The substrate is converted to blue by enzyme catalysis and ultimately to yellow by acid action. The intensity of color is positively correlated with the presence of porcine pancreatic lipase (PL) in the sample. The enzyme-linked immunosorbent assay (ELISA) was used to measure the absorbance (OD value) at a wavelength of 450 nm, and the activity concentration of porcine pancreatic lipase (PL) in the sample was calculated using a standard curve.(1) PL inhibition rate/%=1−A−B/C−D × 100 where A is the absorbance value of the sample; B is the absorbance value of the sample blank; C is the absorbance value of the control group; and D is the absorbance value of the control blank group.
All measured data in the experiment were determined independently and measured in triplicate. All data were processed using SPSS Statistics 26.0. Data plots were generated using Origin 8.5 and GraphPad Prism 8.0.2.

The target of experiment [2] is T1, porcine pancreatic lipase (PL). Put plainly: PL inhibitory activity after simulated gastrointestinal digestion (pepsin, then trypsin). It counts as biochemical. Particulars: pepsin pH 2, then trypsin pH 7.5, enzyme–substrate 1:50 w/w, 37 °C. How it is done:
as §1, with “group. […]” for “group.”

pIC50: −log10 of the molar value. No end group written: not given here.

For the compound `CC(C)c1c(C(=O)Nc2ccccc2)c(-c2ccccc2)c(-c2ccc(F)cc2)n1CC[C@@H](O)C[C@@H](O)CC(=O)O` [atorvastatin, reference compound], in experiment [1], the pIC50 (usually −log10 of the IC50, conventionally taken in molar units) was 3.05 and the PL inhibition rate is 29.27–67.09%.
As for “KVLPVPQ [KQ7, Lys-Val-Leu-Pro-Val-Pro-Gln]”, in experiment [2] (120 min time point), the “PL inhibition rate at 120 min of simulated gastrointestinal digestion” value is listed as 61.31%. Further, in experiment [1], the pIC50 is 3.12.
“RPKHPIK [RK7, Arg-Pro-Lys-His-Pro-Ile-Lys]”: the “PL inhibition rate after simulated gastrointestinal digestion (range over digestion)” value in experiment [2] (120-minute digestion, sampled every 30 min) is recorded as 44.34–62.35%. Also, in experiment [1], the pIC50 is 3.10 and the PL inhibition rate is 19.74–62.32%.

Values taken from publication PMC11771213, “Molecular Docking Studies and In Vitro Activity of Pancreatic Lipase Inhibitors from Yak Milk Cheese” (International Journal of Molecular Sciences, 2025).
